In patent US4500526A, “Cephalosporin derivatives” (Bristol-Myers Company, priority 1983, dated 1985):
≈ marks a conversion by molar mass, not a printed value. Where two headings read alike, the source gives them in different places.

Assays:
[1] = system: Penicillinsensitive S. aureus (5 strains); experiment: MIC, two-fold serial agar dilution, group (G+)-Ia; format: cell-based; details: Staphylococcus aureus, read-out: Geometric Mean of MIC
Procedure: (§1) In the primary evaluation of the compounds of this invention, the Minimum Inhibitory Concentrations (MIC's) of the compounds were determined by the two-fold serial agar dilution method in Mueller-Hinton agar against 32 strains of test organisms in six groups. The sample weights of the test compounds were adjusted according to the purity of each compound, so as to give a more accurate measure of the MIC's.
(G+)Ia: Penicillinsensitive S. aureus (5 strains)

[2] = system: Penicillinresistant S. aureus (5 strains); experiment: MIC, two-fold serial agar dilution, group (G+)-Ib; format: cell-based; details: Staphylococcus aureus, read-out: Geometric Mean of MIC
Procedure: as §1
(G+)Ib: Penicillinresistant S. aureus (5 strains)

[3] = system: Cephalothinsensitive E. coli (2 strains), Kl. pneumoniae (1 strain) and Pr. mirabilis (2 strains); experiment: MIC, two-fold serial agar dilution, group (G-)-Ia; format: cell-based; details: 5 strains, Mueller-Hinton agar, read-out: Geometric Mean of MIC
Procedure: as §1
(G-)Ia: Cephalothinsensitive E. coli (2 strains), Kl. pneumoniae (1
strain) and Pr. mirabilis (2 strains)

[4] = system: Cephalothinresistant E. coli (3 strains) and Kl. pneumoniae (3 strains); experiment: MIC, two-fold serial agar dilution, group (G-)-Ib; format: cell-based; details: Escherichia coli, read-out: Geometric Mean of MIC
Procedure: as §1
(G-)Ib: Cephalothinresistant E. coli (3 strains) and Kl. pneumoniae (3

[5] = system: M. morganii (1 strain), Ent. cloacae (2 strains) and Ser. marcescens (2 strains); experiment: MIC, two-fold serial agar dilution, group (G-)-II; format: cell-based; details: read-out: Geometric Mean of MIC
Procedure: as §1
(G-)II: M. morganii (1 strain), Ent. cloacae (2 strains) and Ser.

[6] = system: Ps. aeruginosa (6 strains); experiment: MIC, two-fold serial agar dilution, group (G-)-III; format: cell-based; details: Pseudomonas aeruginosa, read-out: Geometric Mean of MIC
Procedure: as §1
(G-)III: Ps. aeruginosa (6 strains)

[7] = Mouse blood levels after single intramuscular injection; format: in vivo, mice; details: in vivo, im, 20 mg/kg
Procedure: The absorption of some of the preferred compounds were determined in mice following a single intramuscular injection of the test compound (dissolved in 0.1M phosphate buffer; pH 7) at a dosage of 20 mg/kg. Blood samples were collected from the orbital sinuses into heparinized capillary tubes and assayed in Nutrient Agar (pH 6.6) using E. coli Ess-22-31 as the test organism. The blood levels at various time intervals, the half-life values (t1/2) and the areas under the curve (AUC) are shown in Table 2.

E. coli Juhl = experiment: Median protective dose in infected mice; format: in vivo; details: Escherichia coli, im, immediately after intraperitoneal challenge, read-out: PD50
Procedure: (§2) The median protective dose (PD50) of some of the preferred compounds against various microorganisms was determined in mice by intramuscular administration of the test compound immediately after an intraperitoneal bacterial challenge.

P. aeruginosa A9843 = experiment: Median protective dose in infected mice; format: in vivo; details: Pseudomonas aeruginosa, im, immediately after intraperitoneal challenge, read-out: PD50
Procedure: as §2

S. aureus Smith = experiment: Median protective dose in infected mice; format: in vivo; details: Staphylococcus aureus, im, immediately after intraperitoneal challenge, read-out: PD50
Procedure: as §2

[8] = (G+)-Ia, 5 strains, Mueller-Hinton agar
[9] = (G+)-Ib, 5 strains, Mueller-Hinton agar
[10] = (G-)-III, 6 strains, Mueller-Hinton agar
[11] = (G-)-II, 5 strains, Mueller-Hinton agar

SMILES | MIC [1, 8] [µg/mL] | MIC [2, 9] [µg/mL] | MIC [3] [µg/mL] | MIC [4] [µg/mL] | MIC [5] [µg/mL] | MIC [6, 10] [µg/mL] | AUC [7] [ng·h/mL] | concentration at 10 min [7] [ng/mL] | concentration at 20 min [7] [ng/mL] | concentration at 0.5 h [7] [ng/mL] | concentration at 40 min [7] [ng/mL] | concentration at 50 min [7] [ng/mL] | concentration at 1 h [7] [ng/mL] | concentration at 1.5 h [7] [ng/mL] | concentration at 2 h [7] [ng/mL] | half-life [7] [min] | MIC [5, 11] [µg/mL] | further results
CCO/N=C(\C(=O)NC1C(=O)N2C(C(=O)[O-])=C(C[n+]3ccc4scnc4c3)CSC12)c1csc(N)n1 (centres unmarked) [Ib, 7-[(Z)-2-(2-Aminothiazol-4-yl)-2-ethoxyiminoacetamido]-3-{(5-thiazolo[4,5-c]pyridino)methyl}-3-cephem-4-carboxylate] | 0.42 (≈ 0.77 µM) | 0.96 (≈ 1.76 µM) | 0.035 (≈ 0.0641 µM) | 0.22 (≈ 0.403 µM) | 0.32 (≈ 0.586 µM) | 2.6 (≈ 4.77 µM) | 8400 | 15000 | 22000 | 8400 | 6100 | 3800 | 920 | 680 | 430 | 19 | – | –
C=CCO/N=C(\C(=O)NC1C(=O)N2C(C(=O)[O-])=C(C[n+]3ccc4scnc4c3)CSC12)c1csc(N)n1 (centres unmarked) [Ic, 7-[(Z)-2-Allyloxyimino-2-(2-aminothiazol-4-yl)acetamido]-3-{(5-thiazolo[4,5-c]pyridino)methyl}-3-cephem-4-carboxylate] | 0.32 (≈ 0.574 µM) | 0.56 (≈ 1 µM) | 0.053 (≈ 0.095 µM) | 0.44 (≈ 0.789 µM) | 0.66 (≈ 1.18 µM) | 3.9 (≈ 6.99 µM) | 12000 | 18000 | 14000 | 10000 | 8200 | 5800 | 3600 | 1900 | 1300 | 28 | – | ED50 (E. coli Juhl): 0.048 mg/kg; ED50 (P. aeruginosa A9843): 8.6 mg/kg; ED50 (S. aureus Smith): 1.1 mg/kg
Nc1nc(/C(=N/OCC(=O)O)C(=O)NC2C(=O)N3C(C(=O)[O-])=C(C[n+]4ccc5sc(N)nc5c4)CS[C@H]23)cs1 (some centres unmarked) [Ig, 7-[(Z)-2-(2-Aminothiazol-4-yl)-2-(carboxymethoxyimino)acetamido]-3-(2-amino-5-thiazolo[4,5-c]pyridinio)methyl-3-cephem-4-carboxylate] | 2.1 (≈ 3.56 µM) | – | 0.0072 (≈ 0.0122 µM) | 0.3 (≈ 0.508 µM) | 0.1 (≈ 0.169 µM) | – | 15000 | 21000 | 17000 | 15000 | 10000 | 7600 | 6300 | 1900 | 840 | 22 | – | MIC [2]: 3.6 µg/mL (≈ 6.1 µM); MIC [6]: 1.8 µg/mL (≈ 3.05 µM)
CO/N=C(\C(=O)NC1C(=O)N2C(C(=O)[O-])=C(C[n+]3ccc4sc(C)nc4c3)CSC12)c1csc(N)n1 (centres unmarked) [Ih, 7-[(Z)-2-(2-Aminothiazol-4-yl)-2-methoxyiminoacetamido]-3-[{5-(2-methylthiazolo[4,5-c]pyridinio)}methyl]-3-cephem-4-carboxylate] | 0.34 (≈ 0.623 µM) | 0.78 (≈ 1.43 µM) | 0.007 (≈ 0.0128 µM) | 0.058 (≈ 0.106 µM) | 0.11 (≈ 0.202 µM) | 2.3 (≈ 4.22 µM) | 8600 | 16000 | 10000 | 6900 | 5900 | 4100 | 3000 | 790 | 130 | 16 | – | –
CO/N=C(\C(=O)NC1C(=O)N2C(C(=O)[O-])=C(C[n+]3ccc4sc(SC)nc4c3)CSC12)c1csc(N)n1 (centres unmarked) [Ii, 7-[(Z)-2-(2-Aminothiazol-4-yl)-2-methoxyiminoacetamido]-3-[{5-(2-methylthiothiazolo[4,5-c]pyridinio)}methyl]-3-cephem-4-carboxylate] | 0.23 (≈ 0.398 µM) | – | 0.025 (≈ 0.0433 µM) | 0.13 (≈ 0.225 µM) | – | – | 6800 | 14000 | 10000 | 5900 | 4800 | 2400 | 1500 | 250 | < 100 | 13 | 0.24 (≈ 0.415 µM) | MIC [2]: 0.2 µg/mL (≈ 0.346 µM); MIC [6]: 5.5 µg/mL (≈ 9.52 µM)
CCO/N=C(\C(=O)NC1C(=O)N2C(C(=O)[O-])=C(C[n+]3ccc4sc(N)nc4c3)CSC12)c1csc(N)n1 (centres unmarked) [Ij, 7-[(Z)-2-(2-Aminothiazol-4-yl)-2-ethoxyiminoacetamido]-3-[{5-(2-aminothiazolo[4,5-c]pyridinio)}methyl]-3-cephem-4-carboxylate] | 0.36 (≈ 0.642 µM) | 0.48 (≈ 0.856 µM) | 0.02 (≈ 0.0357 µM) | 0.17 (≈ 0.303 µM) | – | 3 (≈ 5.35 µM) | – | – | – | – | – | – | – | – | – | – | 0.24 (≈ 0.428 µM) | –
CC(C)(O/N=C(\C(=O)NC1C(=O)N2C(C(=O)[O-])=C(C[n+]3ccc4sc(N)nc4c3)CSC12)c1csc(N)n1)C(=O)O (centres unmarked) [Io, 7-[(Z)-2-(2-Aminothiazol-4-yl)-2-(2-carboxyprop-2-oxyimino)-acetamido]-3-[{5-(2-aminothiazolo[4,5-c]pyridinio)}methyl]-3-cephem-4-carboxylate] | – | 3.8 (≈ 6.14 µM) | 0.023 (≈ 0.0372 µM) | 0.47 (≈ 0.76 µM) | – | 1.5 (≈ 2.42 µM) | – | – | – | – | – | – | – | – | – | – | 0.66 (≈ 1.07 µM) | MIC [1]: 1.6 µg/mL (≈ 2.59 µM)
CNC(=O)Nc1nc2c[n+](CC3=C(C(=O)[O-])N4C(=O)C(NC(=O)/C(=N\OC)c5csc(N)n5)[C@H]4SC3)ccc2s1 (some centres unmarked) [Ir, 7-[(Z)-2-(2-Aminothiazol-4-yl)-2-methoxyiminoacetamido]-3-[2-(3-methylureido)-5-thiazolo[4,5-c]pyridinio]methyl-3-cephem-4-carboxylate] | – | 0.8 (≈ 1.33 µM) | 0.025 (≈ 0.0414 µM) | 0.46 (≈ 0.762 µM) | – | 5.2 (≈ 8.61 µM) | – | – | – | – | – | – | – | – | – | – | 0.52 (≈ 0.861 µM) | MIC [1]: 0.4 µg/mL (≈ 0.663 µM)
CO/N=C(\C(=O)NC1C(=O)N2C(C(=O)[O-])=C(C[n+]3ccc4sc(C(N)=O)nc4c3)CS[C@H]12)c1csc(N)n1 (some centres unmarked) [Ix, 7-[(Z)-2-(2-Aminothiazol-4-yl)-2-methoxyiminoacetamido]-3-(2-carbamoyl-5-thiazolo[4,5-c]pyridinio)methyl-3-cephem-4-carboxylate] | 0.53 (≈ 0.922 µM) | 0.8 (≈ 1.39 µM) | 0.022 (≈ 0.0383 µM) | 0.2 (≈ 0.348 µM) | – | 2.8 (≈ 4.87 µM) | 19000 | 20000 | 18000 | 20000 | 13000 | 11000 | 7000 | 4200 | 2100 | 31 | 0.39 (≈ 0.679 µM) | ED50 (E. coli Juhl): 0.013 mg/kg; ED50 (S. aureus Smith): 1.5 mg/kg
